Assay [1] relates to A. baumannii (BAA 747). The assay can be described thus: microbe, parasite or virus in culture. The class given is cell-based, Acinetobacter baumannii. Particulars: Acinetobacter baumannii, BAA747. From the text:
(§1) The minimum inhibitory concentration (MIC) is the minimum concentration of an antimicrobial agent that prevents the visible growth of a bacterium or bacteria. The MIC is an important piece of data for research on new antimicrobial agents and helps in the effective selection of antibiotics to improve the success of treatment. The minimum bactericidal concentration (MBC) is defined as the lowest antibiotic concentration that kills 99.9% of the inoculum. This study mainly contained eight different microorganisms, which were Staphylococcus aureus (ATCC 6538), methicillin-resistant Staphylococcus aureus (NCTC 12493), Enterococcus faecalis (NCTC 12697), Escherichia coli (ATCC 8739), Klebsiella pneumoniae (ATCC 43816), Pseudomonas aeruginosa (ATCC CRM 9027), Acinetobacter baumannii (BAA 747), and Candida albicans (ATCC 10231). The bacteria were incubated in the compatible medium at 37 °C overnight.

Assay [2] deals with S. aureus ATCC 6538 biofilm. The format is cell-based, Staphylococcus aureus. The conditions noted are these: for MBIC: lowest concentration inhibiting at least 90% of biofilm formation; for MBEC: minimum concentration eradicating at least 99% of the biofilm. From the text: (§2) The minimum bactericidal concentration (MBC) is defined as the lowest antibiotic concentration that kills 99.9% of the inoculum. The minimum biofilm inhibitory concentration (MBIC) is the lowest concentration that inhibits at least 90% of the formation of biofilm. The minimum biofilm eradication concentration (MBEC) is the minimum concentration that can eradicate at least 99% of the biofilm. In addition to the eight microorganisms described previously, this experiment was also applied to P. aeruginosa (ATCC 27853, ATCC BAA-2108, P. aeruginosa 01, P. aeruginosa 14).

Assay [3] has as its system E. coli (ATCC 8739). The assay can be described thus: microbe, parasite or virus in culture. The format is cell-based, Escherichia coli. Particulars: Escherichia coli, ATCC8739.
From the text: as §1

Assay [4] relates to MRSA NCTC 12493 biofilm. The format is cell-based, methicillin-resistant Staphylococcus aureus. Particulars: for MBIC: lowest concentration inhibiting at least 90% of biofilm formation; for MBEC: minimum concentration eradicating at least 99% of the biofilm.
From the text: as §2

Assay [5] has as its system K. pneumoniae (ATCC 43816). As to the kind of experiment: microbe, parasite or virus in culture. The class given is cell-based, Klebsiella pneumoniae. Particulars: Klebsiella pneumoniae, ATCC43816.
From the text: as §1

Assay [6] relates to A. baumannii BAA 747 biofilm. The class given is cell-based, Acinetobacter baumannii. The conditions noted are these: for MBIC: lowest concentration inhibiting at least 90% of biofilm formation; for MBEC: minimum concentration eradicating at least 99% of the biofilm.
From the text: as §2

Assay [7] concerns E. faecalis NCTC 12697 biofilm. The format is cell-based, Enterococcus faecalis. Particulars: for MBIC: lowest concentration inhibiting at least 90% of biofilm formation; for MBEC: minimum concentration eradicating at least 99% of the biofilm.
From the text: as §2

For assay [8], the system named is P. aeruginosa (ATCC CRM 9027). As to the kind of experiment: microbe, parasite or virus in culture. The format is cell-based, Pseudomonas aeruginosa. Particulars: Pseudomonas aeruginosa.
From the text: as §1

For assay [9], the system named is P. aeruginosa ATCC 27853 biofilm. The format is cell-based, Pseudomonas aeruginosa. Particulars: for MBIC: lowest concentration inhibiting at least 90% of biofilm formation; for MBEC: minimum concentration eradicating at least 99% of the biofilm.
From the text: as §2

The test system of assay [10] is P. aeruginosa ATCC BAA-2108 biofilm. The class given is cell-based, Pseudomonas aeruginosa. Particulars: for MBIC: lowest concentration inhibiting at least 90% of biofilm formation; for MBEC: minimum concentration eradicating at least 99% of the biofilm.
From the text: as §2

Assay [11] concerns P. aeruginosa ATCC CRM 9027 biofilm. The class given is cell-based, Pseudomonas aeruginosa. The conditions noted are these: for MBIC: lowest concentration inhibiting at least 90% of biofilm formation; for MBEC: minimum concentration eradicating at least 99% of the biofilm.
From the text: as §2

Assay [12] concerns P. aeruginosa 14 biofilm. The format is cell-based, Pseudomonas aeruginosa. The conditions noted are these: for MBIC: lowest concentration inhibiting at least 90% of biofilm formation; for MBEC: minimum concentration eradicating at least 99% of the biofilm.
From the text: as §2

The subject of assay [13] is P. aeruginosa 01 biofilm. The format is cell-based, Pseudomonas aeruginosa. The conditions noted are these: for MBIC: lowest concentration inhibiting at least 90% of biofilm formation; for MBEC: minimum concentration eradicating at least 99% of the biofilm.
From the text: as §2

Assay [14] concerns E. faecalis (NCTC 12697). As to the kind of experiment: microbe, parasite or virus in culture. The class given is cell-based, Enterococcus faecalis. The conditions noted are these: Enterococcus faecalis, NCTC12697.
From the text: as §1

Assay [15] deals with S. aureus (ATCC 6538). As to the kind of experiment: microbe, parasite or virus in culture. The conditions noted are these: Staphylococcus aureus, ATCC6538. The class given is cell-based, Staphylococcus aureus.
From the text: as §1

Assay [16] has as its system MRSA (NCTC 12493). The assay can be described thus: microbe, parasite or virus in culture. The class given is cell-based, methicillin-resistant Staphylococcus aureus. The conditions noted are these: Staphylococcus aureus.
From the text: as §1

Assay [17] relates to K. pneumoniae ATCC 43816 biofilm. The class given is cell-based, Klebsiella pneumoniae. Particulars: for MBIC: lowest concentration inhibiting at least 90% of biofilm formation; for MBEC: minimum concentration eradicating at least 99% of the biofilm.
From the text: as §2

Setting [18] is: planktonic A. baumannii BAA 747, 37 °C, nine repeats of three independent experiments, read-out: MIC.
The mark [19] stands for this setting: planktonic A. baumannii BAA 747, lowest concentration killing 99.9% of inoculum, read-out: MBC.
The mark [20] stands for this setting: planktonic E. coli ATCC 8739, 37 °C, nine repeats of three independent experiments, read-out: MIC.
[21] abbreviates: planktonic E. coli ATCC 8739, lowest concentration killing 99.9% of inoculum, read-out: MBC.
Where [22] appears, read: planktonic K. pneumoniae ATCC 43816, 37 °C, nine repeats of three independent experiments, read-out: MIC.
Setting [23] is: planktonic K. pneumoniae ATCC 43816, lowest concentration killing 99.9% of inoculum, read-out: MBC.
[24] abbreviates: planktonic P. aeruginosa ATCC CRM 9027, 37 °C, nine repeats of three independent experiments, read-out: MIC.
[25] abbreviates: planktonic P. aeruginosa ATCC CRM 9027, lowest concentration killing 99.9% of inoculum, read-out: MBC.
The mark [26] stands for this setting: planktonic E. faecalis NCTC 12697, 37 °C, nine repeats of three independent experiments, read-out: MIC.
[27] abbreviates: planktonic E. faecalis NCTC 12697, lowest concentration killing 99.9% of inoculum, read-out: MBC.
[28] abbreviates: planktonic S. aureus ATCC 6538, 37 °C, nine repeats of three independent experiments, read-out: MIC.
Setting [29] is: planktonic S. aureus ATCC 6538, lowest concentration killing 99.9% of inoculum, read-out: MBC.
Setting [30] is: planktonic MRSA NCTC 12493, 37 °C, nine repeats of three independent experiments, read-out: MIC.
[31] abbreviates: planktonic MRSA NCTC 12493, lowest concentration killing 99.9% of inoculum, read-out: MBC.

Molecules are shown by their SMILES. Values after ≈ are worked out from the molar mass of the structure shown. Read-outs that look alike come from different tables or passages of the source.

On to `CO/N=C(\C(=O)N[C@@H]1C(=O)N2C(C(=O)[O-])=C(C[N+]3(C)CCCC3)CS[C@H]12)c1csc(N)n1` [Cefepime, reference compound], for which the MIC in assay [1] (setting [18]) was determined as 1 µM (≈ 0.481 µg/mL); in assay [3] (setting [20]) it was 8 µM (≈ 3.84 µg/mL); in assay [5] (setting [22]), 128 µM (≈ 61.5 µg/mL); in assay [8] (setting [24]) it was 2 µM (≈ 0.961 µg/mL); in assay [14] (setting [26]), 128 µM (≈ 61.5 µg/mL); in [15] (setting [28]), 32 µM (≈ 15.4 µg/mL). In addition, the MIC in assay [16] (setting [30]) came out at 16 µM (≈ 7.69 µg/mL). For the same molecule, the MBC is 2 µM (≈ 0.961 µg/mL) in assay [1] (setting [19]); 16 µM (≈ 7.69 µg/mL) in assay [3] (setting [21]); greater than 128 µM in assay [5] (setting [23]); 2 µM (≈ 0.961 µg/mL) in assay [8] (setting [25]); greater than 128 µM in assay [14] (setting [27]); 64 µM (≈ 30.8 µg/mL) in assay [15] (setting [29]). Further, in [16] (setting [31]), the MBC was determined as 32 µM (≈ 15.4 µg/mL). Further, the MBIC was 4 µM in assay [2]; >128/>128 µM in [4]; 128/>128 µM in assay [6]; >128/>128 µM in [7]; 2 µM in assay [9]; 64 µM in assay [10]. Besides, the MBIC in [11] is >128/>128 µM; in assay [12], 8 µM; in assay [13], 4 µM; in assay [17] it was >128/>128 µM. Besides, the MBEC in assay [2] is listed as 8 µM; in assay [4], >128/>128 µM; in [6], 128/>128 µM; in assay [7] it was >128/>128 µM; in assay [9], 4 µM; in assay [10], greater than 128 µM. In addition, the MBEC was >128/>128 µM in assay [11], greater than 128 µM in assay [12], greater than 128 µM in assay [13] and >128/>128 µM in assay [17].

`CNC(C)C1CCC(N)C(OC2C(N)CC(N)C(OC3OCC(C)(O)C(NC)C3O)C2O)O1` (stereo not drawn) [Gentamicin, reference compound]: the MIC in assay [1] (setting [18]) was greater than 128 µM; in assay [3] (setting [20]), 2 µM (≈ 0.955 µg/mL); in assay [5] (setting [22]), 1 µM (≈ 0.478 µg/mL); in assay [8] (setting [24]) it was 0.25 µM (≈ 0.119 µg/mL); in assay [14] (setting [26]), 16 µM (≈ 7.64 µg/mL); in assay [15] (setting [28]), 2 µM (≈ 0.955 µg/mL). The MIC in assay [16] (setting [30]) was determined as 1 µM (≈ 0.478 µg/mL). In addition, the MBC in [1] (setting [19]) was greater than 128 µM; in [3] (setting [21]), 4 µM (≈ 1.91 µg/mL); in [5] (setting [23]), 1 µM (≈ 0.478 µg/mL); in [8] (setting [25]), 0.5 µM (≈ 0.239 µg/mL); in [14] (setting [27]), 32 µM (≈ 15.3 µg/mL); in assay [15] (setting [29]), 2 µM (≈ 0.955 µg/mL). The MBC in [16] (setting [31]) amounted to 2 µM (≈ 0.955 µg/mL). The MBIC in assay [2] was 8 µM; in [4], 2 µM; in [6], 8 µM; in assay [7] it was >128/>128 µM; in assay [9], 4 µM; in [10], 16 µM. Moreover, the MBIC was 2 µM in assay [11], 2 µM in [12], 4 µM in [13] and 32/32 µM in [17]. Besides, the MBEC in [2] is 16 µM; in [4], greater than 128 µM; in assay [6] it was 16 µM; in [7], >128/>128 µM; in [9], greater than 128 µM; in assay [10], 128 µM. Moreover, the MBEC is recorded as 4 µM in assay [11], 4 µM in assay [12], 8 µM in [13] and 32/32 µM in assay [17].

With `C[C@H]1COc2c(N3CCN(C)CC3)c(F)cc3c(=O)c(C(=O)O)cn1c23` [Levofloxacin, reference compound], the MIC in assay [1] (setting [18]) is 1 µM (≈ 0.361 µg/mL); in assay [3] (setting [20]) it was 0.25 µM (≈ 0.0903 µg/mL); in assay [5] (setting [22]) it was greater than 128 µM; in assay [8] (setting [24]) it was 2 µM (≈ 0.723 µg/mL); in assay [14] (setting [26]) it was 2 µM (≈ 0.723 µg/mL); in assay [15] (setting [28]), 0.5 µM (≈ 0.181 µg/mL). The MIC in assay [16] (setting [30]) amounted to 0.25 µM (≈ 0.0903 µg/mL). For the same molecule, the MBC was 1 µM (≈ 0.361 µg/mL) in assay [1] (setting [19]); 0.5 µM (≈ 0.181 µg/mL) in [3] (setting [21]); greater than 128 µM in assay [5] (setting [23]); 2 µM (≈ 0.723 µg/mL) in [8] (setting [25]); 8 µM (≈ 2.89 µg/mL) in assay [14] (setting [27]); 0.5 µM (≈ 0.181 µg/mL) in assay [15] (setting [29]). In addition, the MBC in [16] (setting [31]) was 0.5 µM (≈ 0.181 µg/mL).

`CN[C@H](CC(C)C)C(=O)N[C@H]1C(=O)N[C@@H](CC(N)=O)C(=O)N[C@H]2C(=O)N[C@H]3C(=O)N[C@H](C(=O)N[C@H](C(=O)O)c4cc(O)cc(O)c4-c4cc3ccc4O)[C@H](O)c3ccc(c(Cl)c3)Oc3cc2cc(c3O[C@@H]2O[C@H](CO)[C@@H](O)[C@H](O)[C@H]2O[C@H]2C[C@](C)(N)[C@H](O)[C@H](C)O2)Oc2ccc(cc2Cl)[C@H]1O` [Vancomycin, reference compound]: the MBC was greater than 128 µM in assay [1]; greater than 128 µM in assay [3]; greater than 128 µM in assay [5]; greater than 128 µM in assay [8]; greater than 128 µM in [14]; 64 µM (≈ 92.8 µg/mL) in assay [15]. The molecule further gave an MBC in [16] of 8 µM (≈ 11.6 µg/mL). Besides, the MIC was greater than 128 µM in assay [1]; 32 µM (≈ 46.4 µg/mL) in assay [3]; greater than 128 µM in [5]; greater than 128 µM in assay [8]; 32 µM (≈ 46.4 µg/mL) in assay [14]; 8 µM (≈ 11.6 µg/mL) in assay [15]. The molecule also yielded an MIC in [16] of 4 µM (≈ 5.8 µg/mL).

(Values after PMC11274128, “Modification and Synergistic Studies of a Novel Frog Antimicrobial Peptide against Pseudomonas aeruginosa Biofilms” (Antibiotics, 2024).)
